Measured values as given in paper PMC10145973, “Genomic Insights into Bacterial Resistance to Proline-Rich Antimicrobial Peptide Bac7” (Membranes, 2023).
In brackets after ≈: the same amount, converted by molar mass. Several values for one entry are separate records, joined by “and”; a condition that tells them apart may be missing. Identical values can stand only once. Where a SMILES comes first, the peptide text is derived from it. Bridges are numbered along the chain shown (N, C = ends).

What was measured:
E. coli MDR 1057 B3 [1] = details: Table 2; broth microdilution in MHB (medium ±0.9% NaCl not given), 0.1% BSA, 24 h, 37 °C; median of at least three independent experiments in triplicate
E. coli MDR 1057 P1 [2] = details: Table 2; broth microdilution in MHB (medium ±0.9% NaCl not given), 0.1% BSA, 24 h, 37 °C; median of at least three independent experiments in triplicate
E. coli MDR 1057 WT [3] = details: Table 2; broth microdilution in MHB (medium ±0.9% NaCl not given), 10^6 CFU/mL suspension, agents diluted in 0.1% BSA, 24 h, 37 °C, visible turbidity; median of at least three independent experiments in triplicate
E. coli MDR 1057 B2 [4] = details: Table 2; broth microdilution in MHB (medium ±0.9% NaCl not given), 0.1% BSA, 24 h, 37 °C; median of at least three independent experiments in triplicate
E. coli MDR 1057 P1 [5] = experiment: microbe, parasite or virus in culture; details: Escherichia coli, MDR1057P1, 24 h, read-out: Minimum Inhibitory Concentration, P1
E. coli MDR 1057 B2 [6] = experiment: microbe, parasite or virus in culture; details: Escherichia coli, MDR1057B2, 24 h, read-out: Minimum Inhibitory Concentration, B2
E. coli MDR 1057 WT [7] = experiment: microbe, parasite or virus in culture; details: Escherichia coli, MDR1057WT, 24 h, read-out: Minimum Inhibitory Concentration, WT
E. coli MDR 1057 B3 [8] = experiment: microbe, parasite or virus in culture; details: Escherichia coli, MDR1057B3, 24 h, read-out: Minimum Inhibitory Concentration, B3
[9] = test system: resistant Salmonella enterica strain (pmrB mutations); details: cited from earlier work
[10] = test system: extensively drug-resistant Klebsiella pneumoniae isolate; set-up: method as in PMID 30445429; details: serially passaged in the presence of the agent; cited from earlier work

Molecule	Minimum Inhibitory Concentration, B3 (E. coli MDR 1057 B3 [1])	Minimum Inhibitory Concentration, P1 (E. coli MDR 1057 P1 [2])	Minimum Inhibitory Concentration, WT (E. coli MDR 1057 WT [3])	Minimum Inhibitory Concentration, B2 (E. coli MDR 1057 B2 [4])	MIC (E. coli MDR 1057 P1 [5])	MIC (E. coli MDR 1057 B2 [6])	MIC (E. coli MDR 1057 WT [7])	MIC (E. coli MDR 1057 B3 [8])	MIC after a single pmrB mutation [9]	increase in MIC after serial passage [10]
CC(C)[C@@H]1NC(=O)[C@H](Cc2ccc(O)cc2)NC(=O)[C@H](Cc2c[nH]c3ccccc23)NC(=O)[C@@H](NC(=O)[C@H](Cc2ccccc2)NC(=O)CN)CSSC[C@@H](C(=O)N[C@@H](CC(N)=O)C(=O)O)NC(=O)[C@H](CCCNC(=N)N)NC(=O)[C@H](CCCNC(=N)N)NC(=O)[C@H](Cc2ccc(O)cc2)NC(=O)[C@@H]2CSSC[C@H](NC1=O)C(=O)N[C@@H](C)C(=O)N[C@@H](CCCNC(=N)N)C(=O)N[C@@H](CCCNC(=N)N)C(=O)N[C@@H](CC(N)=O)C(=O)NCC(=O)N[C@@H](C)C(=O)N[C@@H](CCCNC(=N)N)C(=O)N[C@@H](C(C)C)C(=O)N2 [AA139] (H-GFCWYVCARRNGARVCYRRCN-OH; disulfide 3-20, 7-16 (inferred))	1 µM	0.5 µM	0.25 µM	0.25 µM						
CC1(C)S[C@@H]2[C@H](NC(=O)[C@H](N)c3ccccc3)C(=O)N2[C@H]1C(=O)O [Ampicillin]					256 µM (≈ 89.4 µg/mL)	256 µM (≈ 89.4 µg/mL)	256 µM (≈ 89.4 µg/mL)	256 µM (≈ 89.4 µg/mL)		
CO/N=C(\C(=O)N[C@@H]1C(=O)N2C(C(=O)O)=C(CSc3nc(=O)c(=O)[nH]n3C)CS[C@H]12)c1csc(N)n1 [Ceftriaxone]					128 µM (≈ 71 µg/mL)	128 µM (≈ 71 µg/mL)	128 µM (≈ 71 µg/mL)	128 µM (≈ 71 µg/mL)		
CC[C@H](C)[C@H](NC(=O)[C@@H]1CCCN1C(=O)CNC(=O)[C@@H](NC(=O)[C@H](Cc1ccccc1)NC(=O)[C@@H]1CCCN1C(=O)CNC(=O)[C@@H](NC(=O)[C@H](CCCCN)NC(=O)[C@H](Cc1c[nH]cn1)NC(=O)[C@H](Cc1c[nH]c2ccccc12)NC(=O)[C@H](CC(C)C)NC(=O)[C@H](CCCNC(=N)N)NC(=O)[C@H](CCCCN)NC(=O)[C@H](CC(C)C)NC(=O)[C@H](CCCCN)NC(=O)[C@H](CCCCN)NC(=O)[C@H](CCCNC(=N)N)NC(=O)[C@H](Cc1ccccc1)NC(=O)[C@H](CCCNC(=N)N)NC(=O)[C@H](CCCCN)NC(=O)[C@H](Cc1ccccc1)NC(=O)[C@H](CCCNC(=N)N)NC(=O)CN)C(C)C)C(C)C)C(=O)N[C@@H](CC(C)C)C(=O)N[C@@H](Cc1c[nH]cn1)C(=O)N[C@@H](Cc1ccc(O)cc1)C(=O)O [ChMAP-28] (H-GRFKRFRKKLKRLWHKVGPFVGPILHY-OH)	0.063 µM	0.063 µM	0.063 µM	0.063 µM						
O=C(N[C@H](CO)[C@H](O)c1ccc([N+](=O)[O-])cc1)C(Cl)Cl [Chloramphenicol]					16 µM (≈ 5.17 µg/mL)	16 µM (≈ 5.17 µg/mL)	8 µM (≈ 2.59 µg/mL)	8 µM (≈ 2.59 µg/mL)		
O=C(O)c1cn(C2CC2)c2cc(N3CCNCC3)c(F)cc2c1=O [Ciprofloxacin]					128 µM (≈ 42.4 µg/mL)	128 µM (≈ 42.4 µg/mL)				
CNC(C)C1CCC(N)C(OC2C(N)CC(N)C(OC3OCC(C)(O)C(NC)C3O)C2O)O1 (centres unmarked) [Gentamicin]					4 µM (≈ 1.91 µg/mL)	2 µM (≈ 0.955 µg/mL)	2 µM (≈ 0.955 µg/mL)	2 µM (≈ 0.955 µg/mL)		
CC[C@H](C)[C@H](NC(=O)[C@H](CCCCN)NC(=O)[C@H](CCC(=O)O)NC(=O)[C@H](CCCCN)NC(=O)[C@H](CO)NC(=O)[C@H](CCCCN)NC(=O)[C@H](CCCNC(=N)N)NC(=O)[C@H](Cc1ccccc1)NC(=O)[C@H](Cc1ccccc1)NC(=O)[C@H](CC(=O)O)NC(=O)CNC(=O)[C@H](CC(C)C)NC(=O)[C@@H](N)CC(C)C)C(=O)NCC(=O)N[C@@H](CCCCN)C(=O)N[C@@H](CCC(=O)O)C(=O)N[C@@H](Cc1ccccc1)C(=O)N[C@@H](CCCCN)C(=O)N[C@@H](CCCNC(=N)N)C(=O)N[C@H](C(=O)N[C@H](C(=O)N[C@@H](CCC(N)=O)C(=O)N[C@@H](CCCNC(=N)N)C(=O)N[C@H](C(=O)N[C@@H](CCCCN)C(=O)N[C@@H](CC(=O)O)C(=O)N[C@@H](Cc1ccccc1)C(=O)N[C@@H](CC(C)C)C(=O)N[C@@H](CCCNC(=N)N)C(=O)N[C@@H](CC(N)=O)C(=O)N[C@@H](CC(C)C)C(=O)N[C@H](C(=O)N1CCC[C@H]1C(=O)N[C@@H](CCCNC(=N)N)C(=O)N[C@H](C(=O)N[C@@H](CCC(=O)O)C(=O)N[C@@H](CO)C(=O)O)[C@@H](C)O)C(C)C)[C@@H](C)CC)C(C)C)[C@@H](C)CC [LL-37]	2 µM	1 µM	4 µM	2 µM						
CC(C)C[C@H](NC(=O)[C@H](CCCNC(=N)N)NC(=O)[C@@H]1CCCN1C(=O)[C@@H]1CCCN1C(=O)[C@H](Cc1ccccc1)NC(=O)[C@H](Cc1ccccc1)NC(=O)[C@@H]1CCCN1C(=O)[C@@H]1CCCN1C(=O)[C@@H]1CCCN1C(=O)[C@H](CCCNC(=N)N)NC(=O)[C@@H]1CCCN1C(=O)[C@H](CCCNC(=N)N)NC(=O)[C@@H]1CCCN1C(=O)[C@H](CC(C)C)NC(=O)[C@H](Cc1ccc(O)cc1)NC(=O)[C@@H]1CCCN1C(=O)[C@@H]1CCCN1C(=O)[C@H](CCCNC(=N)N)NC(=O)[C@@H]1CCCN1C(=O)[C@H](CCCNC(=N)N)NC(=O)[C@H](CCCNC(=N)N)NC(=O)[C@@H](N)CCCNC(=N)N)C(=O)O [PR-39_1-22] (H-RRRPRPPYLPRPRPPPFFPPRL-OH)	>32 µM	16 µM	2 µM	>32 µM						
CC(C)C[C@H](NC(=O)[C@H](CCCNC(=N)N)NC(=O)CNC(=O)CNC(=O)[C@@H](N)CCCNC(=N)N)C(=O)N[C@H]1CSSC[C@@H](C(=O)N[C@H](C(=O)NCC(=O)N[C@@H](CCCNC(=N)N)C(=O)O)C(C)C)NC(=O)[C@H](C(C)C)NC(=O)[C@@H]2CSSC[C@H](NC(=O)[C@H](Cc3ccc(O)cc3)NC1=O)C(=O)N[C@@H](CCCNC(=N)N)C(=O)N[C@@H](CCCNC(=N)N)C(=O)N[C@@H](CCCNC(=N)N)C(=O)N[C@@H](Cc1ccccc1)C(=O)N2 [Protegrin-1] (H-RGGRLCYCRRRFCVCVGR-OH; disulfide 6-15, 8-13; N-terminus and C-terminus assumed)	0.25 µM	0.25 µM	0.25 µM	0.25 µM						
CO[C@H]1/C=C/O[C@@]2(C)Oc3c(C)c(O)c4c(O)c(c(/C=N/N5CCN(C)CC5)c(O)c4c3C2=O)NC(=O)/C(C)=C\C=C\[C@H](C)[C@H](O)[C@@H](C)[C@@H](O)[C@@H](C)[C@H](OC(C)=O)[C@@H]1C [Rifampicin]					64 µM (≈ 52.7 µg/mL)	128 µM (≈ 105 µg/mL)	64 µM (≈ 52.7 µg/mL)	64 µM (≈ 52.7 µg/mL)		
CC[C@H]1OC(=O)[C@H](C)[C@@H](O[C@H]2C[C@@](C)(OC)[C@@H](O)[C@H](C)O2)[C@H](C)[C@@H](O[C@@H]2O[C@H](C)C[C@H](N(C)C)[C@H]2O)[C@](C)(O)C[C@@H](C)/C(=N\OCOCCOC)[C@H](C)[C@@H](O)[C@]1(C)O [Roxithromycin]					> 256 µM	256 µM (≈ 214 µg/mL)	256 µM (≈ 214 µg/mL)	256 µM (≈ 214 µg/mL)		
CN[C@@H]1[C@H](O)[C@H](NC)[C@H]2O[C@@]3(O)C(=O)C[C@@H](C)O[C@H]3O[C@@H]2[C@H]1O [Spectinomycin]					64 µM (≈ 21.3 µg/mL)	32 µM (≈ 10.6 µg/mL)	32 µM (≈ 10.6 µg/mL)	32 µM (≈ 10.6 µg/mL)		
CC(C)C[C@H](NC(=O)[C@H](CCCNC(=N)N)NC(=O)[C@@H](N)CCCNC(=N)N)C(=O)N[C@@H](CCCNC(=N)N)C(=O)N1CCC[C@H]1C(=O)N[C@@H](CCCNC(=N)N)C(=O)N[C@@H](CCCNC(=N)N)C(=O)N1CCC[C@H]1C(=O)N[C@@H](CCCNC(=N)N)C(=O)N[C@@H](CC(C)C)C(=O)N1CCC[C@H]1C(=O)N[C@@H](CCCNC(=N)N)C(=O)N1CCC[C@H]1C(=O)N[C@@H](CCCNC(=N)N)C(=O)N1CCC[C@H]1C(=O)N[C@@H](CCCNC(=N)N)C(=O)N1CCC[C@H]1C(=O)N[C@@H](CCCNC(=N)N)C(=O)N1CCC[C@H]1C(=O)N[C@@H](CCCNC(=N)N)C(=O)N1CCC[C@H]1C(=O)N[C@@H](CCCNC(=N)N)C(=O)O [mini-ChBac7.5Nα] (H-RRLRPRRPRLPRPRPRPRPRPR-OH)	>32 µM	>32 µM	8 µM	>32 µM						
colistin									up to 3 µg/mL and ≤ 4 µM	≥ 1000 fold
